In ChEMBL document CHEMBL1147192, “New GABA-modulating 1,2,4-oxadiazole derivatives and their anticonvulsant activity” (Eur J Med Chem, 2007):

Tests used:
[1] = test system: Rattus norvegicus; experiment: Neurotoxicity in orally dosed Wistar rat after 4 hrs by RotoRod test; assay type: toxicity, organism-based; conditions: in vivo, po
[2] = test system: Rattus norvegicus; experiment: Anticonvulsant activity in orally dosed Wistar rat after 0.3 hrs by PTZ test; assay type: functional; conditions: po
[3] = test system: Rattus norvegicus; experiment: Anticonvulsant activity in orally dosed Wistar rat after 1 hr by PTZ test; assay type: functional; conditions: po
[4] = test system: Rattus norvegicus; experiment: Anticonvulsant activity in orally dosed Wistar rat after 2 hrs by PTZ test; assay type: functional; conditions: po
[5] = test system: Rattus norvegicus; experiment: Neurotoxicity in orally dosed Wistar rat after 1 hr by RotoRod test; assay type: toxicity, organism-based; conditions: in vivo, po
[6] = test system: Rattus norvegicus; experiment: Anticonvulsant activity in orally dosed Wistar rat after 1 hr by MES test; assay type: functional; conditions: po
[7] = Potentiation of GABA-induced current in rat cortical neurons at 10 uM by whole-cell patch clamp technique; assay type: functional
[8] = test system: Rattus norvegicus; experiment: Anticonvulsant activity in orally dosed Wistar rat after 0.5 hrs by MES test; assay type: functional; conditions: po
[9] = species on record: Rattus norvegicus; conditions: Membrane, 10 uM
[10] = Inhibition of voltage dependent sodium current in rat cortical neurons at 100 uM by whole-cell patch clamp technique; assay type: functional
[11] = Potentiation of GABA-induced current in rat cortical neurons at 100 uM by whole-cell patch clamp technique; assay type: functional
[12] = test system: Rattus norvegicus; experiment: Anticonvulsant activity in orally dosed Wistar rat after 2 hrs by MES test; assay type: functional; conditions: po
[13] = Inhibition of voltage dependent sodium current in rat cortical neurons at 10 uM by whole-cell patch clamp technique; assay type: functional
[14] = Displacement of [3H]flunitrazepam from benzodiazepine receptor in rat neuronal membranes at 10 uM
[15] = test system: Rattus norvegicus; experiment: Neurotoxicity in orally dosed Wistar rat after 2 hrs by RotoRod test; assay type: toxicity, organism-based; conditions: in vivo, po
[16] = test system: Rattus norvegicus; experiment: Neurotoxicity in orally dosed Wistar rat after 0.5 hrs by RotoRod test; assay type: toxicity, organism-based; conditions: in vivo, po
[17] = test system: Rattus norvegicus; experiment: Anticonvulsant activity in orally dosed Wistar rat after 4 hrs by MES test; assay type: functional; conditions: po
[18] = test system: Rattus norvegicus; experiment: Anticonvulsant activity in orally dosed Wistar rat after 3 hrs by PTZ test; assay type: functional; conditions: po
[19] = test system: Rattus norvegicus; experiment: Anticonvulsant activity in orally dosed Wistar rat after 0.5 hr by PTZ test; assay type: functional; conditions: po

Fc1ccc(-c2nc(Cn3cncn3)no2)cc1
ED50 [1]: < 150 mg/kg | ED50 [2]: 15.2 mg/kg

Clc1ccc(-c2nc(Cn3cncn3)no2)cc1
ED50 [3]: > 100 mg/kg

Clc1ccc(-c2noc(Cn3cncn3)n2)cc1
ED50 [4]: 29.5 mg/kg | ED50 [5]: < 100 mg/kg | ED50 [6]: 21.8 mg/kg | Activity [7]: 141% | ED50 [8]: 47.2 mg/kg | inhibition [9]: -8% | inhibition at 100 µM [10]: 31% | Activity [11]: 553%

c1ccc(-c2noc(Cn3ccnc3)n2)cc1
ED50 [12]: 5.8 mg/kg | inhibition [9]: 0.6% | inhibition at 100 µM [10]: 83% | inhibition at 10 µM [13]: 30% | Activity [11]: 134%

Clc1ccc(-c2noc(Cn3ccnc3)n2)cc1
ED50 [5]: > 500 mg/kg | Activity [7]: 103% | inhibition [9]: 0.2% | inhibition at 100 µM [10]: 72% | Activity [11]: 298%

CN1C(=O)CN=C(c2ccccc2)c2cc(Cl)ccc21 [DIAZEPAM]
Ki [14]: 6.8 nM | Activity [7]: 216% | inhibition [9]: > 99%

Fc1ccccc1-c1noc(Cn2cncn2)n1
ED50 [12]: 44.3 mg/kg | ED50 [4]: < 50 mg/kg | ED50 [15]: < 250 mg/kg | inhibition [9]: 2.2% | Activity [11]: 191%

Cc1ccc(-c2noc(Cn3cncn3)n2)cc1
ED50 [12]: > 70 mg/kg | ED50 [5]: 171 mg/kg | ED50 [3]: 76.5 mg/kg

Fc1cccc(-c2noc(Cn3cncn3)n2)c1
ED50 [5]: 128 mg/kg | ED50 [3]: 39.2 mg/kg | ED50 [6]: 26.2 mg/kg | inhibition [9]: -1.6% | inhibition at 100 µM [10]: 12% | Activity [11]: 212%

Fc1cccc(-c2nc(Cn3cncn3)no2)c1
ED50 [3]: 73.9 mg/kg | ED50 [16]: < 250 mg/kg

c1ccc(-c2nc(Cn3cncn3)no2)cc1
ED50 [5]: 335 mg/kg | ED50 [3]: 25.5 mg/kg | ED50 [6]: 14.6 mg/kg | Activity [7]: 131% | inhibition [9]: -3.1% | inhibition at 100 µM [10]: 9% | Activity [11]: 210%

c1ccc(-c2noc(Cn3cncn3)n2)cc1
ED50 [4]: 37 mg/kg | ED50 [15]: 77 mg/kg | inhibition [9]: 2.7% | inhibition at 100 µM [10]: 8% | Activity [11]: 286% | ED50 [17]: 13.1 mg/kg

Cc1cccc(-c2nc(Cn3cncn3)no2)c1
ED50 [8]: < 50 mg/kg | ED50 [18]: > 50 mg/kg | ED50 [16]: > 50 mg/kg

Cc1cccc(-c2noc(Cn3cncn3)n2)c1
ED50 [5]: 219 mg/kg | Activity [7]: 110% | inhibition [9]: -1.1% | ED50 [19]: 95.9 mg/kg | inhibition at 100 µM [10]: 22% | Activity [11]: 387%
